Reference: patent publication US20260364003A1, “EYE DROP MICROSUSPENSIONS OF MTOR INHIBITORS” (OCULIS OPERATIONS SARL, priority 2022, published 2026)

Tests used:
[1] = Phase-solubility of everolimus in aqueous cyclodextrin solutions; format: physicochemical; settings: pure aqueous cyclodextrin solutions, 25 °C
Method: Everolimus was added to each cyclodextrin solution in excess, the samples were continuously agitated on a magnetic stirrer for 24 hours.

[2] = Physicochemical characterization of lipid microsuspensions (pH, viscosity, osmolality, particle size); settings: Table 9, lipid microsuspension containing the drug
Description: The diameter of a particle, such as a microparticle of mTOR inhibitor in oil and cyclodextrin/lipid complexes, can correspond to the D50 diameter of the particle. Diameter D50 is also known as the median diameter or the medium value of the particle size distribution. Diameter D50 corresponds to the value of the particle diameter at 50% in the cumulative distribution. For example, if D50 is 5 μm, then 50% of the particles in the sample are larger than 5 μm, and 50% smaller than 5 μm. Diameter D50 is usually used to represent the particle size of a group of particles.
The diameter and/or size of a particle can be measured according to any method known to those of ordinary skill in the art. For example, the diameter D50 is measured by laser diffraction particle size analysis. […] In particular, persons of ordinary skill in this field know that the physical properties (e.g. particle size, diameter, average diameter, mean particle size, etc.) are typically evaluated/measured using such limited, typical known techniques.
In specific embodiments, the particle size is measured by laser diffraction particle size analysis according to Pharm. […]
Following is a general procedure for preparation of a non-sterile lipid microsuspension at laboratory scale and for a total batch size of 100 g:
First, appropriate quantity of castor oil containing the dissolved drug-substance (i.e., everolimus) is transferred into a glass container. Second, under stirring with a magnetic stirrer aqueous α-cyclodextrin solution is added to the container. Third, aqueous solution containing EDTA and glycerol is added. Fourth, aqueous solution of Kolliphor HS15 is added. Mixing is continued for about 10 minutes before the stirring bar is removed and the suspension formed mixed with a high-shear homogenizer probe (Ultra-Turrax® T25 homogenizer, IKA-Werke, Germany, with probe IKA-S-25N-18G) operated at 8,000 RPM for about 10 minutes. […] The pH is adjusted to 5.3±0.1 with concentrated hydrochloric acid solution and/or sodium hydroxide solution. Finally, if needed, purified water is added to adjust the final weight of the sample to 100%.
The mixture obtained was homogenized for 10 minutes at 12,000 rpm using Ultra-Turrax® high shear homogenizer with S25N-18G probe at 12,000 rpm for 10 minutes. […] The lipid microsuspension formed was stirred by magnetic stirrer for 30 minutes at room temperature. Finally, the pH was adjusted by addition of hydrochloric acid and/or sodium hydroxide. […]

[3] = from the microemulsion; cited from earlier work
[4] = Table 9; cited from earlier work
[5] = cited from earlier work; for chemical stability of derivative: sirolimus derivatives
[6] = room temperature; cited from earlier work

| SMILES | affinity for everolimus [1] | Osmolality [2] [mOsmol/kg] | Particle size Dx(10) [2] [μm] | Particle size Dx(50) [2] [μm] | Particle size Dx(90) [2] [μm] | Viscosity at 15 rpm [2] [cP] | pH [2] | topical bioavailability [3] | Drug LogP [4] | stability in microemulsion eye drops ([5]; microemulsion eye drops containing about 25% water) | solubility in water [6] | chemical stability of derivative [5] |
| --- | --- | --- | --- | --- | --- | --- | --- | --- | --- | --- | --- | --- |
| OC[C@H]1O[C@@H]2O[C@H]3[C@H](O)[C@@H](O)[C@@H](O[C@H]4[C@H](O)[C@@H](O)[C@@H](O[C@H]5[C@H](O)[C@@H](O)[C@@H](O[C@H]6[C@H](O)[C@@H](O)[C@@H](O[C@H]7[C@H](O)[C@@H](O)[C@@H](O[C@H]1[C@H](O)[C@H]2O)O[C@@H]7CO)O[C@@H]6CO)O[C@@H]5CO)O[C@@H]4CO)O[C@@H]3CO [α-cyclodextrin] | lowest affinity | – | – | – | – | – | – | – | – | – | – | – |
| C=CC[C@@H]1/C=C(\C)C[C@H](C)C[C@H](OC)[C@H]2O[C@@](O)(C(=O)C(=O)N3CCCC[C@H]3C(=O)O[C@H](/C(C)=C/[C@@H]3CC[C@@H](O)[C@H](OC)C3)[C@H](C)[C@@H](O)CC1=O)[C@H](C)C[C@@H]2OC [Tacrolimus, tacrolimus] | – | 304 | 1.5 | 5.3 | 22 | 15.7 | 5.0 | – | – | – | – | – |
| CO[C@H]1C[C@@H]2CC[C@@H](C)[C@@](O)(O2)C(=O)C(=O)N2CCCC[C@H]2C(=O)O[C@H]([C@H](C)C[C@@H]2CC[C@@H](O)[C@H](OC)C2)CC(=O)[C@H](C)/C=C(\C)[C@@H](O)[C@@H](OC)C(=O)[C@H](C)C[C@H](C)/C=C/C=C/C=C/1C [Sirolimus, sirolimus] | – | 309 | 1.5 | 5.7 | 25 | 16.5 | 5.9 | very low | 6.0 | stable | – | – |
| CO[C@H]1C[C@@H]2CC[C@@H](C)[C@@](O)(O2)C(=O)C(=O)N2CCCC[C@H]2C(=O)O[C@H]([C@H](C)C[C@@H]2CC[C@@H](OC(=O)C(C)(CO)CO)[C@H](OC)C2)CC(=O)[C@H](C)/C=C(\C)[C@@H](O)[C@@H](OC)C(=O)[C@H](C)C[C@H](C)/C=C/C=C/C=C/1C [Temsirolimus, 42-[3-hydroxy-2-(hydroxymethyl)-2-methylpropanoate]-rapamycin] | – | – | – | – | – | – | – | – | – | – | about 7 mg/mL | do not improve the chemical stability |
| C[C@@H]1C[C@H]2[C@@H]3CCC4=CC(=O)C=C[C@]4(C)[C@@]3(F)[C@@H](O)C[C@]2(C)[C@@]1(O)C(=O)CO [Dexamethasone, dexamethasone] | – | 297 | 1.4 | 4.6 | 16 | 17.7 | 6.4 | – | 1.9 | – | – | – |
| CCOC(=O)O[C@]1(C(=O)OCCl)CC[C@H]2[C@@H]3CCC4=CC(=O)C=C[C@]4(C)[C@H]3[C@@H](O)C[C@@]21C [Loteprednol etabonate, loteprednol etabonate] | – | 282 | 1.5 | 6.2 | 24 | 16.1 | 6.5 | – | 3.9 | – | – | – |
| CO[C@H]1C[C@@H]2CC[C@@H](C)[C@@](O)(O2)C(=O)C(=O)N2CCCC[C@H]2C(=O)O[C@H]([C@H](C)C[C@@H]2CC[C@@H](OP(C)(C)=O)[C@H](OC)C2)CC(=O)[C@H](C)/C=C(\C)[C@@H](O)[C@@H](OC)C(=O)[C@H](C)C[C@H](C)/C=C/C=C/C=C/1C [deforolimus, 42-(dimethylphosphinate)-rapamycin] | – | – | – | – | – | – | – | – | – | – | about 7 mg/mL | do not improve the chemical stability |
